PMC12846068, “Insights into Transport Function of the Murine Organic Anion-Transporting Polypeptide OATP1B2 by Comparison with Its Rat and Human Orthologues” (Toxics, 2025)

Assays:
[1] = target: T1, mOATP1B2 (Mus musculus, UniProt Q9JJL3); assay: mOATP1B2-mediated uptake of [3H]-E1S and [3H]-TCA in overexpressing HEK293 cells; type: cell-based
T1 construct: The full-length mOATP1B2 and rOATP1B2 consist of 689 and 678 amino acids
T1 sequence (Q9JJL3 1-689): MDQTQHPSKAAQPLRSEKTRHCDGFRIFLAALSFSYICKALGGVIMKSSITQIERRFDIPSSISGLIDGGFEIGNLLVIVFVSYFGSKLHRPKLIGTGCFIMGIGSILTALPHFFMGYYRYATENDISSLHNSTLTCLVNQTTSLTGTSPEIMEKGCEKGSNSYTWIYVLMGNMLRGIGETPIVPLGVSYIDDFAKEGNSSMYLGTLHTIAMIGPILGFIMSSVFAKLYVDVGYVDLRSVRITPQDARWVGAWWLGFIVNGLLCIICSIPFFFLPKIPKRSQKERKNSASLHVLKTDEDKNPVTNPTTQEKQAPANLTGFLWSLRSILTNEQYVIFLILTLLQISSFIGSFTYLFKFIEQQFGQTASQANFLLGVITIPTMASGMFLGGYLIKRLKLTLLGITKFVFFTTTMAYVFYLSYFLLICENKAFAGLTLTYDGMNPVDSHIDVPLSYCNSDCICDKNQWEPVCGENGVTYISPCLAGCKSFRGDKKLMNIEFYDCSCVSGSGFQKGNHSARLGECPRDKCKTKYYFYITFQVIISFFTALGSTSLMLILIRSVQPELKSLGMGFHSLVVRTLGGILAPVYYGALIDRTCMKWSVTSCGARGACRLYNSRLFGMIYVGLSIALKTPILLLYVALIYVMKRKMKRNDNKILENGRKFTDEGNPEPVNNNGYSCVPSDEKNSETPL
Experimental: (§1) To perform transporter-mediated uptake, both stably transfected cells and control cells (seeding density 2 × 10^5) were cultured for three days in 24-well plates (coated with 0.1 mg/mL poly-D-lysine hydrobromide). Then, 24 h before the start of the transport experiment, the gene expression of mOapt1b2 and rOATP1B2 was induced by 1 µg/mL tetracycline. At the beginning of each experiment, the cells were washed three times with pre-warmed 0.5 mL HBSS incubation buffer (supplemented with 20 mM HEPES, pH 7.4) and equilibrated for at least 20 min as described previously [27]. After aspirating the incubation buffer, the uptake process was started by adding 200 µL HBSS incubation buffer containing radio-labeled and unlabeled substances to each well and incubated at 37 °C for an appropriate time. The uptake was stopped by aspirating the reaction mixture and washing the cells 3 times with 0.4 mL ice-cold PBS buffer. After cell lysis with 0.6 mL of 1N NaOH overnight, the whole content of each well (0.6 mL) was transferred to a 6 mL scintillation vial (Sarstedt) containing 2.5 mL scintillation liquid (Rotiszint®eco plus, Carl Roth). The ^3H content was measured in a scintillation counter (Perkin Elmer TRICarb 2810 or HIDEX 600SL). […]
(§2) The absolute amount (pmol) of the radio-labeled probe substrate uptake was calculated and related to the determined protein values as well as the incubation time. […]

[2] = target: T2, rOATP1B2 (Rattus norvegicus, UniProt Q9QZX8); assay: rOATP1B2-mediated uptake of [3H]-E1S and [3H]-TCA in overexpressing HEK293 cells; type: cell-based; settings: rOATP1B2, 1 µM substrate; E1S 5 min, TCA 10 min
T2 construct: The full-length mOATP1B2 and rOATP1B2 consist of 689 and 678 amino acids
T2 sequence (Q9QZX8 1-687): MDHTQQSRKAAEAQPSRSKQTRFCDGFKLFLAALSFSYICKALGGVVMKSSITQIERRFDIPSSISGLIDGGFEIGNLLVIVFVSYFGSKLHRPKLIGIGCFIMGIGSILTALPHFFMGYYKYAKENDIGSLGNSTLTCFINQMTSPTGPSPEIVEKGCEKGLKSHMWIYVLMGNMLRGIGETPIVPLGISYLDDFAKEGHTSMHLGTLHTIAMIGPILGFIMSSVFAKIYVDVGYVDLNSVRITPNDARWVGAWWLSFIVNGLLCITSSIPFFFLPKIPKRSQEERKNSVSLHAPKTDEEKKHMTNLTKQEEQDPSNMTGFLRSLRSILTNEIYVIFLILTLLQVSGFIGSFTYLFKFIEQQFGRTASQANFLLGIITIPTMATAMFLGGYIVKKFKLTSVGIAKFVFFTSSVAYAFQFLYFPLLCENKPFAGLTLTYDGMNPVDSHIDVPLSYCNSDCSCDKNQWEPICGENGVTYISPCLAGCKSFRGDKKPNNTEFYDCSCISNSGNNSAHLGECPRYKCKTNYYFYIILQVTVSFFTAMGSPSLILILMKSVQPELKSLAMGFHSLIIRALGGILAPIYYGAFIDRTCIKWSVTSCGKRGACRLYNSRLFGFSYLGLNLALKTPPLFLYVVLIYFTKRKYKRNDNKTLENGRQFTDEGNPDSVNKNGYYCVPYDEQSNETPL
Experimental: as §1, §2

[3] = target: T3, hOATP1B3 (Homo sapiens, UniProt Q9NPD5); assay: hOATP1B3-mediated uptake of [3H]-E1S and [3H]-TCA in transfected HEK293 cells
T3 sequence (Q9NPD5 1-702): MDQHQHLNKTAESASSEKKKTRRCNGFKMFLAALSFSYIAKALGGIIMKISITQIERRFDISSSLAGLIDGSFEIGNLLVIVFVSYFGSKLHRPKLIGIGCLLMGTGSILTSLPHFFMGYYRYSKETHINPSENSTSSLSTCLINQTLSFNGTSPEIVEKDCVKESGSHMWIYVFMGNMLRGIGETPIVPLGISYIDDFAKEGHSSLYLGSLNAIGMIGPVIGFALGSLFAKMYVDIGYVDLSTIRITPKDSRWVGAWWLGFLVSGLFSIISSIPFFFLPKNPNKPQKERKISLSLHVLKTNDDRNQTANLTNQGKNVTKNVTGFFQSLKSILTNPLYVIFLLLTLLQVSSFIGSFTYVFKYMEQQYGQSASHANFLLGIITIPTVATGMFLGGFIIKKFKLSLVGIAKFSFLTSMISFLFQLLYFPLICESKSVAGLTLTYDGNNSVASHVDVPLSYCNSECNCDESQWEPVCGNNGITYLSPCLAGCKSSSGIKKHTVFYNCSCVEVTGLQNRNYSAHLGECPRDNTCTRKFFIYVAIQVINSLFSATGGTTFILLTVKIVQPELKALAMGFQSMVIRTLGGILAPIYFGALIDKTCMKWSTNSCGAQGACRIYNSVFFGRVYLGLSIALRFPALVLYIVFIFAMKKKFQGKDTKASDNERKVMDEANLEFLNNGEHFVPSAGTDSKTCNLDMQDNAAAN
Experimental: To perform transporter-mediated uptake, both stably transfected cells and control cells (seeding density 2 × 10^5) were cultured for three days in 24-well plates (coated with 0.1 mg/mL poly-D-lysine hydrobromide). Then, 24 h before the start of the transport experiment, the gene expression of mOapt1b2 and rOATP1B2 was induced by 1 µg/mL tetracycline. At the beginning of each experiment, the cells were washed three times with pre-warmed 0.5 mL HBSS incubation buffer (supplemented with 20 mM HEPES, pH 7.4) and equilibrated for at least 20 min as described previously [27]. After aspirating the incubation buffer, the uptake process was started by adding 200 µL HBSS incubation buffer containing radio-labeled and unlabeled substances to each well and incubated at 37 °C for an appropriate time. The uptake was stopped by aspirating the reaction mixture and washing the cells 3 times with 0.4 mL ice-cold PBS buffer. After cell lysis with 0.6 mL of 1N NaOH overnight, the whole content of each well (0.6 mL) was transferred to a 6 mL scintillation vial (Sarstedt) containing 2.5 mL scintillation liquid (Rotiszint®eco plus, Carl Roth). The ^3H content was measured in a scintillation counter (Perkin Elmer TRICarb 2810 or HIDEX 600SL).
To verify the results for the human transporters, both substrates were tested at a concentration of 0.01 µM. All experiments were conducted at least on two separate days as triplicates.
The absolute amount (pmol) of the radio-labeled probe substrate uptake was calculated and related to the determined protein values as well as the incubation time. The transporter-mediated uptake rate (net uptake) was obtained by subtracting the uptake rate in control (vector only)-transfected HEK293 cells from the uptake rate in transporter-transfected cells. To calculate the Km of the respective substrate, the transporter-mediated net uptake (pmol/mg protein/min) was plotted against the substrate concentrations in SigmaPlot 13. Weighted nonlinear regression was used for curve fitting (ligand binding with one site saturation).

C[C@H](CCC(=O)NCCS(=O)(=O)O)[C@H]1CC[C@H]2[C@@H]3[C@H](O)C[C@@H]4C[C@H](O)CC[C@]4(C)[C@H]3C[C@H](O)[C@]12C [TCA, taurocholate]
uptake compared to vector-transfected control cells ([1]; mOATP1B2, 1 µM substrate, E1S 5 min, TCA 10 min): more than 100 fold | affinity of mOATP1B2 lower than that of rOATP1B2 ([1]; ratio of Km values mOATP1B2/rOATP1B2): 4.6 fold | uptake compared to vector-transfected control cells [2]: > 70 fold | uptake compared to vector-transfected control cells ([3]; hOATP1B3, 0.01 µM substrate): 2.7 fold | uptake over control cells / substrate status ([3]; hOATP1B3, substrate concentration not stated at the place): 2-3 fold | Km at 10 min ([3]; human, pH 7.4): 21 ± 8 µM
